From patent publication US11147272B2, “Pyridone compounds and agricultural and horticultural fungicides comprising the same as active ingredients” (MITSUI CHEMICALS AGRO, INC., priority 2017, dated 2021) come the findings set out here.

One assay concerns Phytophthora infestans. Briefly: whole plant or invertebrate. The assay is classed as in vivo. Conditions: Late blight on tomato; control value class.
A further assay relates to Magnaporthe grisea. Briefly: whole plant or invertebrate. It counts as in vivo. The conditions noted are these: Blast on rice; control value class.
The test system of the next assay is Botrytis cinerea. Kind of assay: Test Example B: Gray mold on tomato. The conditions noted are these: Gray mold on tomato; control value class.
The next assay relates to Puccinia recondita. Kind of assay: Test Example E: Brown rust on wheat. Conditions: Brown rust on wheat; control value class. The assay is classed as in vivo.
The test system of assay [1] is Colletotrichum orbiculare. Briefly: Test Example H: Anthracnose on cucumber. The conditions noted are these: Anthracnose on cucumber; 250 ppm spray, 6 to 10 days after inoculation.
Protocol: Seeds of a test plant (cucumber variety: Sagami Hanjiro) were planted and cultivated until the first leaf appeared. In the test, the inventive compounds were dissolved into dimethyl sulfoxide-methanol mixture solution (volume ratio: 9/1), and the resultant solutions were diluted with well water to a concentration of 250 ppm to obtain the drug solutions. The drug solutions were sprayed to the test plant (2.5 ml/pot). After the drug solutions dried, a conidial suspension (2-4×10^5 conidia/ml) of Colletotrichum orbiculare was inoculated to the plant by spraying. After the inoculation, the plant was kept in a mist chamber at room temperature of 20 to 23° C. for about 24 hours to promote the onset of disease. The degrees of disease development were investigated 6 to 10 days after the inoculation, and the effectiveness of the drug solutions was evaluated.
In Test Examples described above, the degrees of disease development were evaluated in increments of 0.05 from 0 (as no incidence of disease) to 3 (as the degree of disease development in an untreated plant group). Further, control values were calculated using the following equation based on the degree of disease development.
n=Degree of disease development in each treated group
In the table, H: more than 50% control value, L: 50% or less control value, and nt: not tested.
A further assay deals with Alternaia brassicicola. Kind of assay: Test Example C: Alternaria sooty spot on cabbage. The assay is classed as in vivo. The conditions noted are these: Alternaria sooty spot on cabbage; control value class. The source says:
Seeds of a test plant (cabbage variety: Shikidori) were planted and cultivated until the cotyledons extended.
<Control Value> Control value=100{1−(n/3)}

For the next assay, the system named is Plasmopara viticola. Briefly: Test Example G: Downy mildew on vine. Conditions: Downy mildew on vine; 250 ppm spray, 7 to 10 days after inoculation.
Assay [2] has as its system Blumeria graminis f. sp. hordei. Kind of assay: Test Example D: Powdery mildew on barley. Conditions: Powdery mildew on barley; control value class.

For the molecule `Cc1cc(CC(C)C)c(-c2c(F)cc(F)cc2F)n(CC(F)F)c1=O` [compound 307], in the assay on Phytophthora infestans, the “Test F control value” is “L (50% or less control value)”. The “Test A control value” in the assay with Magnaporthe grisea is recorded as “L (50% or less control value)”. For the same molecule, the “Test B control value” in the assay with Botrytis cinerea is “H (more than 50% control value)”. Besides, the “Test E control value” in the assay on Puccinia recondita is on record as “H (more than 50% control value)”. In addition, the “Test H control value” in assay [1] is reported as “H (more than 50% control value)”. In the assay with Alternaia brassicicola, the “Test C control value” is “H (more than 50% control value)”. Also, the “Test G control value” in the assay on Plasmopara viticola is reported as “L (50% or less control value)”. In assay [2], the “Test D control value” is “H (more than 50% control value)”.
Consider `CCn1c(-c2c(F)cc(F)cc2F)c(COc2ccccc2)cc(Cl)c1=O` [compound 308], for which the “Test F control value” in the assay with Phytophthora infestans is on record as “L (50% or less control value)”. In addition, the “Test A control value” in the assay with Magnaporthe grisea is “H (more than 50% control value)”. For the same molecule, the “Test B control value” with Botrytis cinerea is reported as “L (50% or less control value)”. Further, the “Test E control value” in the assay with Puccinia recondita is reported as “L (50% or less control value)”. For the same molecule, in assay [1], the “Test H control value” was “L (50% or less control value)”. Also, the “Test C control value” in the assay on Alternaia brassicicola is “H (more than 50% control value)”. Moreover, the “Test G control value” in the assay with Plasmopara viticola is “L (50% or less control value)”. In addition, the “Test D control value” in assay [2] is on record as “L (50% or less control value)”.
For `CCn1c(-c2c(F)cc(F)cc2F)c(C(Cl)=CCl)cc(Cl)c1=O` [compound 309], the “Test F control value” in the assay on Phytophthora infestans is recorded as “L (50% or less control value)”. Further, the “Test A control value” in the assay on Magnaporthe grisea is listed as “H (more than 50% control value)”. Besides, the “Test B control value” in the assay with Botrytis cinerea is “H (more than 50% control value)”. Moreover, the “Test E control value” in the assay on Puccinia recondita is “H (more than 50% control value)”. Also, the “Test H control value” in assay [1] is reported as “H (more than 50% control value)”. Further, the “Test C control value” in the assay on Alternaia brassicicola was “H (more than 50% control value)”. The “Test G control value” in the assay with Plasmopara viticola was “H (more than 50% control value)”. The “Test D control value” in assay [2] is reported as “H (more than 50% control value)”.
On to `CCn1c(-c2c(F)cc(F)cc2F)c(COc2ccc(OC)cc2)cc(Cl)c1=O` [compound 310], for which the “Test F control value” in the assay with Phytophthora infestans is reported as “L (50% or less control value)”. For the same molecule, the “Test A control value” in the assay on Magnaporthe grisea is recorded as “L (50% or less control value)”. Besides, the “Test B control value” in the assay with Botrytis cinerea is reported as “H (more than 50% control value)”. Also, the “Test E control value” in the assay on Puccinia recondita was “H (more than 50% control value)”. In assay [1], the “Test H control value” was “L (50% or less control value)”. For the same molecule, in the assay with Alternaia brassicicola, the “Test C control value” was “H (more than 50% control value)”. In addition, the “Test G control value” with Plasmopara viticola is given as “H (more than 50% control value)”. Besides, the “Test D control value” in assay [2] is recorded as “L (50% or less control value)”.
As to `CCn1c(-c2c(F)cc(F)cc2F)c(COc2ccc(Cl)cc2)cc(Cl)c1=O` [compound 311], in the assay with Phytophthora infestans, the “Test F control value” is “L (50% or less control value)”. The “Test A control value” with Magnaporthe grisea is listed as “L (50% or less control value)”. In the assay on Botrytis cinerea, the “Test B control value” is reported as “L (50% or less control value)”. For the same molecule, in the assay with Puccinia recondita, the “Test E control value” is “H (more than 50% control value)”. Also, the “Test H control value” in assay [1] was “L (50% or less control value)”. Moreover, in the assay with Alternaia brassicicola, the “Test C control value” is recorded as “L (50% or less control value)”. For the same molecule, the “Test G control value” in the assay on Plasmopara viticola is recorded as “L (50% or less control value)”. Further, in assay [2], the “Test D control value” is “L (50% or less control value)”.
Take `CCC1=C(c2ccc(F)cc2Cl)N(C)C(=O)CC1` [compound 312]: the “Test F control value” in the assay with Phytophthora infestans was “L (50% or less control value)”. Also, the “Test A control value” in the assay on Magnaporthe grisea is recorded as “L (50% or less control value)”. Moreover, in the assay with Botrytis cinerea, the “Test B control value” is listed as “L (50% or less control value)”. Also, the “Test E control value” with Puccinia recondita is recorded as “L (50% or less control value)”. In addition, in assay [1], the “Test H control value” is given as “L (50% or less control value)”. Besides, the “Test C control value” in the assay on Alternaia brassicicola was “H (more than 50% control value)”. The “Test G control value” with Plasmopara viticola is reported as “L (50% or less control value)”. Further, the “Test D control value” in assay [2] is recorded as “L (50% or less control value)”.
As for `CCC1=C(c2ccc(F)cc2Cl)N(C)C(=S)CC1` [compound 313], the “Test F control value” in the assay on Phytophthora infestans is “L (50% or less control value)”. In the assay on Magnaporthe grisea, the “Test A control value” is listed as “L (50% or less control value)”. In the assay with Botrytis cinerea, the “Test B control value” is listed as “L (50% or less control value)”. Further, the “Test E control value” in the assay on Puccinia recondita is listed as “L (50% or less control value)”. The “Test H control value” in assay [1] is “L (50% or less control value)”. Besides, the “Test C control value” in the assay on Alternaia brassicicola is “L (50% or less control value)”. The “Test G control value” with Plasmopara viticola was “H (more than 50% control value)”. Moreover, the “Test D control value” in assay [2] is “L (50% or less control value)”.
On to `CCc1ccc(=O)n(C)c1-c1ccc(F)cc1Cl` [compound 314], for which, in the assay with Phytophthora infestans, the “Test F control value” is “L (50% or less control value)”. Moreover, the “Test A control value” in the assay on Magnaporthe grisea is “L (50% or less control value)”. For the same molecule, in the assay on Botrytis cinerea, the “Test B control value” is “L (50% or less control value)”. Besides, the “Test E control value” in the assay on Puccinia recondita is given as “H (more than 50% control value)”. Besides, the “Test H control value” in assay [1] is given as “L (50% or less control value)”. Besides, the “Test C control value” with Alternaia brassicicola was “L (50% or less control value)”. The “Test G control value” in the assay with Plasmopara viticola is recorded as “L (50% or less control value)”. In addition, in assay [2], the “Test D control value” is on record as “H (more than 50% control value)”.
As to `CCCC1=C(c2ccc(F)cc2Cl)N(CC)C(=S)CC1` [compound 315], the “Test F control value” with Phytophthora infestans was “L (50% or less control value)”. Moreover, the “Test A control value” in the assay with Magnaporthe grisea is “L (50% or less control value)”. For the same molecule, in the assay on Botrytis cinerea, the “Test B control value” is on record as “L (50% or less control value)”. The “Test E control value” in the assay with Puccinia recondita is recorded as “L (50% or less control value)”. Also, in assay [1], the “Test H control value” is “L (50% or less control value)”. The “Test C control value” with Alternaia brassicicola is “L (50% or less control value)”. Also, the “Test G control value” in the assay with Plasmopara viticola is reported as “L (50% or less control value)”. Further, in assay [2], the “Test D control value” is recorded as “H (more than 50% control value)”.
Regarding `CCc1cc(Cl)c(=O)n(C)c1-c1ccc(F)cc1Cl` [compound 316], the “Test F control value” in the assay on Phytophthora infestans is reported as “H (more than 50% control value)”. The “Test A control value” with Magnaporthe grisea is listed as “L (50% or less control value)”. Moreover, the “Test B control value” in the assay on Botrytis cinerea is “H (more than 50% control value)”. Also, the “Test E control value” with Puccinia recondita is given as “H (more than 50% control value)”. In addition, the “Test H control value” in assay [1] is “H (more than 50% control value)”. The “Test C control value” in the assay on Alternaia brassicicola is “H (more than 50% control value)”. In the assay on Plasmopara viticola, the “Test G control value” is “H (more than 50% control value)”. In addition, the “Test D control value” in assay [2] is listed as “L (50% or less control value)”.
On to `CCc1cc(Br)c(=O)n(C)c1-c1ccc(F)cc1Cl` [compound 317], for which, in the assay with Phytophthora infestans, the “Test F control value” is given as “H (more than 50% control value)”. In the assay on Magnaporthe grisea, the “Test A control value” is “L (50% or less control value)”. In addition, the “Test B control value” in the assay on Botrytis cinerea is given as “H (more than 50% control value)”. For the same molecule, in the assay with Puccinia recondita, the “Test E control value” is recorded as “H (more than 50% control value)”. Moreover, in assay [1], the “Test H control value” was “H (more than 50% control value)”. Further, in the assay with Alternaia brassicicola, the “Test C control value” is “H (more than 50% control value)”. Moreover, the “Test G control value” with Plasmopara viticola is “H (more than 50% control value)”. For the same molecule, in assay [2], the “Test D control value” was “L (50% or less control value)”.
In the case of `CCCc1ccc(=O)n(CC)c1-c1ccc(OC)cc1Cl` [compound 318], in the assay on Phytophthora infestans, the “Test F control value” is on record as “H (more than 50% control value)”. For the same molecule, the “Test A control value” in the assay with Magnaporthe grisea is given as “L (50% or less control value)”. The “Test B control value” in the assay with Botrytis cinerea is “H (more than 50% control value)”. For the same molecule, the “Test E control value” in the assay on Puccinia recondita is recorded as “H (more than 50% control value)”. The “Test H control value” in assay [1] is given as “H (more than 50% control value)”. The “Test C control value” in the assay with Alternaia brassicicola was “H (more than 50% control value)”. For the same molecule, in the assay with Plasmopara viticola, the “Test G control value” is recorded as “L (50% or less control value)”. In addition, the “Test D control value” in assay [2] was “H (more than 50% control value)”.
Regarding `CCc1ccc(=O)n(CC)c1-c1ccc(OC)cc1Cl` [compound 319], the “Test F control value” in the assay on Phytophthora infestans is on record as “L (50% or less control value)”. In the assay with Magnaporthe grisea, the “Test A control value” was “L (50% or less control value)”. In the assay with Botrytis cinerea, the “Test B control value” is on record as “H (more than 50% control value)”. The “Test E control value” in the assay with Puccinia recondita was “H (more than 50% control value)”. Moreover, in assay [1], the “Test H control value” is reported as “H (more than 50% control value)”. Moreover, the “Test C control value” in the assay with Alternaia brassicicola is recorded as “H (more than 50% control value)”. In the assay with Plasmopara viticola, the “Test G control value” is recorded as “L (50% or less control value)”. Besides, the “Test D control value” in assay [2] is “H (more than 50% control value)”.
Regarding `CCCc1cc(Cl)c(=O)n(CC)c1-c1ccc(OC)cc1Cl` [compound 320], the “Test F control value” in the assay on Phytophthora infestans is listed as “H (more than 50% control value)”. The “Test A control value” in the assay with Magnaporthe grisea is “H (more than 50% control value)”. Moreover, the “Test B control value” in the assay with Botrytis cinerea was “H (more than 50% control value)”. Also, the “Test E control value” in the assay on Puccinia recondita is on record as “H (more than 50% control value)”. The “Test H control value” in assay [1] was “H (more than 50% control value)”. The “Test C control value” in the assay on Alternaia brassicicola is “H (more than 50% control value)”. Moreover, the “Test G control value” in the assay on Plasmopara viticola is “H (more than 50% control value)”. The “Test D control value” in assay [2] is reported as “H (more than 50% control value)”.
